Results as given in US8969516B2, “Method of hydrolysis of peptide bond” (priority 2006, dated 2015).

Test: MALDI-TOF screening of Ni^2+ dependent hydrolysis in a combinatorial peptide library
Format: physicochemical
Conditions: CH3CO-Gly-Ala-Thr-X-His-Z-Lys-Phe-Leu-NH2 library, Ni^2+ 2 mM, pH 8.2, 10 mM Tris, score=24/tm
Outline: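 MALDI-TOF read-out: appearance of Ser/Thr-X-His-Z-Lys-Phe-Leu-NH2 product signals, plus loss of substrate signals, checked by eye at 2, 4, 6, 8 h. Conditions: 1 mM peptide mixture, 2 mM Ni2+, 10 mM Tris pH 8.2, 37 or 45 °C.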

Row | Substance | hydrolysis score from MALDI-TOF screening (37° C.) | hydrolysis score from MALDI-TOF screening (45° C.)
1 | Ac-GATGHPKFL-NH2 [TGHP] | 0 (a score of 0 if no trace of the product of hydrolysis was seen after 8 hours of incubation) | 0 (a score of 0 if no trace of the product of hydrolysis was seen after 8 hours of incubation)
2 | Ac-GATGHQKFL-NH2 [TGHQ] | 0 (a score of 0 if no trace of the product of hydrolysis was seen after 8 hours of incubation) | 0 (a score of 0 if no trace of the product of hydrolysis was seen after 8 hours of incubation)
3 | Ac-GATGHRKFL-NH2 [TGHR] | 0 (a score of 0 if no trace of the product of hydrolysis was seen after 8 hours of incubation) | 0 (a score of 0 if no trace of the product of hydrolysis was seen after 8 hours of incubation)
4 | Ac-GATGHSKFL-NH2 [TGHS] | 0 (a score of 0 if no trace of the product of hydrolysis was seen after 8 hours of incubation) | 0 (a score of 0 if no trace of the product of hydrolysis was seen after 8 hours of incubation)
5 | Ac-GATGHTKFL-NH2 [TGHT] | 0 (a score of 0 if no trace of the product of hydrolysis was seen after 8 hours of incubation) | 0 (a score of 0 if no trace of the product of hydrolysis was seen after 8 hours of incubation)
6 | Ac-GATGHVKFL-NH2 [TGHV] | 0 (a score of 0 if no trace of the product of hydrolysis was seen after 8 hours of incubation) | 0 (a score of 0 if no trace of the product of hydrolysis was seen after 8 hours of incubation)
7 | Ac-GATGHWKFL-NH2 [TGHW] | 0 (a score of 0 if no trace of the product of hydrolysis was seen after 8 hours of incubation) | 0 (a score of 0 if no trace of the product of hydrolysis was seen after 8 hours of incubation)
8 | Ac-GATGHYKFL-NH2 [TGHY] | 0 (a score of 0 if no trace of the product of hydrolysis was seen after 8 hours of incubation) | 0 (a score of 0 if no trace of the product of hydrolysis was seen after 8 hours of incubation)
9 | Ac-GATHHAKFL-NH2 [THHA] | 0 (a score of 0 if no trace of the product of hydrolysis was seen after 8 hours of incubation) | 4 (a score of 4 for detection at 6 hours)
10 | Ac-GATHHDKFL-NH2 [THHD] | 0 (a score of 0 if no trace of the product of hydrolysis was seen after 8 hours of incubation) | 0 (a score of 0 if no trace of the product of hydrolysis was seen after 8 hours of incubation)
11 | Ac-GATHHEKFL-NH2 [THHE] | 0 (a score of 0 if no trace of the product of hydrolysis was seen after 8 hours of incubation) | 0 (a score of 0 if no trace of the product of hydrolysis was seen after 8 hours of incubation)
12 | Ac-GATHHFKFL-NH2 [THHF] | 0 (a score of 0 if no trace of the product of hydrolysis was seen after 8 hours of incubation) | 6 (a score of 6 for detection at 4 hours)
13 | Ac-GATHHGKFL-NH2 [THHG] | 0 (a score of 0 if no trace of the product of hydrolysis was seen after 8 hours of incubation) | 4 (a score of 4 for detection at 6 hours)
14 | Ac-GATHHHKFL-NH2 [THHH] | 3 (a score of 3 for detection at 8 hours) | 4 (a score of 4 for detection at 6 hours)
15 | Ac-GATHHIKFL-NH2 [THHI] | 3 (a score of 3 for detection at 8 hours) | 12 (a score of 12, if it was seen to be partially hydrolysed at 2 hours)
16 | Ac-GATHHKKFL-NH2 [THHK] | 6 (a score of 6 for detection at 4 hours) | 12 (a score of 12, if it was seen to be partially hydrolysed at 2 hours)
17 | Ac-GATHHLKFL-NH2 [THHL] | 3 (a score of 3 for detection at 8 hours) | 12 (a score of 12, if it was seen to be partially hydrolysed at 2 hours)
18 | Ac-GATHHMKFL-NH2 [THHM] | 0 (a score of 0 if no trace of the product of hydrolysis was seen after 8 hours of incubation) | 4 (a score of 4 for detection at 6 hours)
19 | Ac-GATHHNKFL-NH2 [THHN] | 0 (a score of 0 if no trace of the product of hydrolysis was seen after 8 hours of incubation) | 0 (a score of 0 if no trace of the product of hydrolysis was seen after 8 hours of incubation)
20 | Ac-GATHHPKFL-NH2 [THHP] | 0 (a score of 0 if no trace of the product of hydrolysis was seen after 8 hours of incubation) | 0 (a score of 0 if no trace of the product of hydrolysis was seen after 8 hours of incubation)

Row | Substance | hydrolysis score from MALDI-TOF screening (37° C.) | hydrolysis score from MALDI-TOF screening (45° C.)
21 | Ac-GATHHRKFL-NH2 [THHR] | 6 (a score of 6 for detection at 4 hours) | 6 (a score of 6 for detection at 4 hours)
22 | Ac-GATHHSKFL-NH2 [THHS] | 0 (a score of 0 if no trace of the product of hydrolysis was seen after 8 hours of incubation) | 4 (a score of 4 for detection at 6 hours)
23 | Ac-GATHHTKFL-NH2 [THHT] | 0 (a score of 0 if no trace of the product of hydrolysis was seen after 8 hours of incubation) | 4 (a score of 4 for detection at 6 hours)
24 | Ac-GATHHVKFL-NH2 [THHV] | 0 (a score of 0 if no trace of the product of hydrolysis was seen after 8 hours of incubation) | 6 (a score of 6 for detection at 4 hours)
25 | Ac-GATHHWKFL-NH2 [THHW] | 12 (a score of 12, if it was seen to be partially hydrolysed at 2 hours) | 12 (a score of 12, if it was seen to be partially hydrolysed at 2 hours)
26 | Ac-GATHHYKFL-NH2 [THHY] | 0 (a score of 0 if no trace of the product of hydrolysis was seen after 8 hours of incubation) | 6 (a score of 6 for detection at 4 hours)
27 | Ac-GATIHAKFL-NH2 [TIHA] | 0 (a score of 0 if no trace of the product of hydrolysis was seen after 8 hours of incubation) | 0 (a score of 0 if no trace of the product of hydrolysis was seen after 8 hours of incubation)
28 | Ac-GATIHDKFL-NH2 [TIHD] | 0 (a score of 0 if no trace of the product of hydrolysis was seen after 8 hours of incubation) | 0 (a score of 0 if no trace of the product of hydrolysis was seen after 8 hours of incubation)
29 | Ac-GATIHFKFL-NH2 [TIHF] | 0 (a score of 0 if no trace of the product of hydrolysis was seen after 8 hours of incubation) | 0 (a score of 0 if no trace of the product of hydrolysis was seen after 8 hours of incubation)
30 | Ac-GATIHGKFL-NH2 [TIHG] | 0 (a score of 0 if no trace of the product of hydrolysis was seen after 8 hours of incubation) | 0 (a score of 0 if no trace of the product of hydrolysis was seen after 8 hours of incubation)
31 | Ac-GATIHHKFL-NH2 [TIHH] | 0 (a score of 0 if no trace of the product of hydrolysis was seen after 8 hours of incubation) | 0 (a score of 0 if no trace of the product of hydrolysis was seen after 8 hours of incubation)
32 | Ac-GATIHIKFL-NH2 [TIHI] | 0 (a score of 0 if no trace of the product of hydrolysis was seen after 8 hours of incubation) | 0 (a score of 0 if no trace of the product of hydrolysis was seen after 8 hours of incubation)
33 | Ac-GATIHKKFL-NH2 [TIHK] | 0 (a score of 0 if no trace of the product of hydrolysis was seen after 8 hours of incubation) | 3 (a score of 3 for detection at 8 hours)
34 | Ac-GATIHLKFL-NH2 [TIHL] | 0 (a score of 0 if no trace of the product of hydrolysis was seen after 8 hours of incubation) | 0 (a score of 0 if no trace of the product of hydrolysis was seen after 8 hours of incubation)
35 | Ac-GATIHNKFL-NH2 [TIHN] | 0 (a score of 0 if no trace of the product of hydrolysis was seen after 8 hours of incubation) | 0 (a score of 0 if no trace of the product of hydrolysis was seen after 8 hours of incubation)
36 | Ac-GATIHPKFL-NH2 [TIHP] | 0 (a score of 0 if no trace of the product of hydrolysis was seen after 8 hours of incubation) | 0 (a score of 0 if no trace of the product of hydrolysis was seen after 8 hours of incubation)
37 | Ac-GATIHQKFL-NH2 [TIHQ] | 0 (a score of 0 if no trace of the product of hydrolysis was seen after 8 hours of incubation) | 0 (a score of 0 if no trace of the product of hydrolysis was seen after 8 hours of incubation)
38 | Ac-GATIHRKFL-NH2 [TIHR] | 0 (a score of 0 if no trace of the product of hydrolysis was seen after 8 hours of incubation) | 3 (a score of 3 for detection at 8 hours)
39 | Ac-GATIHSKFL-NH2 [TIHS] | 0 (a score of 0 if no trace of the product of hydrolysis was seen after 8 hours of incubation) | 0 (a score of 0 if no trace of the product of hydrolysis was seen after 8 hours of incubation)
